Laboratory results: article PMC12767106, “In Situ Assembly of Transformable Monopeptide on Activated Neutrophils Attenuates NETs‐Induced Hepatocellular Carcinoma Metastasis by Disrupting NE Nuclear Translocation” (Advanced Science, 2025)

Test system: subcutaneous Hepa1-6/luc tumors
Experiment: Immune profiling of tumors by flow cytometry, plasma cytokines by ELISA
Format: in vivo, mouse
Conditions: tumor-bearing mice
Method: Submitted to Advanced Science
Total RNA was extracted and purified using a miRNeasy Mini Kit (FOREGENE, China). Quantitative real-time polymerase chain reaction (qRT-PCR) was performed in triplicate in the ABI 7500 fast real-time PCR System (Applied Biosystems, USA). The mRNAs were normalized with 18s. The following primers were used for PCR detection: E-cadherin, N-cadherin, Vimentin, and α-catenin.
Western blot analysis was performed to evaluate the levels of relative proteins in Hepa1-6/luc cells and Neutrophils.38 To evaluate NETs release, the neutrophils were exposed to PMA, PMA+NFTP -NPs, and PMA+FTP-NPs for 12 h. Following treatment, the cells underwent three PBS washes for WB to measure the expression of CitH3 proteins (Cat. no. ab5103, Abcam, Cambridge, England , UK). Furthermore, to evaluate EMT of Hepa1-6/luc cells, the cells underwent three PBS washes for WB to measure the expression of E - cadherin (Abmart, China), N-cadherin (Abmart, China), Vimentin (Abmart, China) , and β-catenin (Abmart, […]
In vivo subcutaneously implanted tumor models
The C57BL/6J mice with subcutaneous Hepa1-6/luc xenografts (grew up to roughly 100 mm 3) were separated into four groups according to the different treatments to perform the in vivo tumor therapy. PBS, NFTP-NPs, FTP-NPs, and NEi (300 µM in PBS: DMSO = 95:5, 200 µL) were administered intravenously (i.v.) five times every two days to mice. aPD-1 (BE0146, Bio X Cell, USA) was injected intraperitoneally into each mouse at 200μg once every 4 days for 3 doses. Throughout the experiment, the tumor volumes and body weight were measured once every four days. The formula tumor volume=length*1/2 width2 was used to get the tumor volume; at the same time, IVIS (AniView SE, Guangzhou Biolight Biotechnology Co., Ltd) was used to calculate bioluminescence signals in vivo. After therapy (day 20), major organs and blood samples were taken for histological and biochemical investigation as part of a safety assessment. […]
TNF-α, were measured using commercially available ELISA kits to assess the immune activation induced by […]

Substance: PpIX-GFFVLK-EAIPMSIPPEVK [FTP-NPs]
- plasma IL-6 level: significantly higher
- plasma IL-10 level: decreased
- plasma TNF-α level: significantly higher
